Measurements taken from US20100285963A1, “SUBSTITUTED FLUOROALKOXYPHENYLSULFONYLUREAS” (priority 2001, published 2010).

What was measured:
Assay type in all cases: in vivo
[1] = tested on: apple mildew pathogen Podosphaera leucotricha; experiment: Podosphaera test (apple)/protective; settings: protective; for % efficacy: apple, application rate 100 g/ha, 10 days after inoculation; for efficacy against mildew of apples (Podosphaera leucotricha): application rate of 100 g/ha, evaluation 10 days after the inoculation
Method: Solvent: 49 parts by weight of acetone
(§1) Emulsifier: 1 part by weight of alkylaryl polyglycol ether
To produce a suitable preparation of active compound, 1 part by weight of active compound is mixed with the stated amounts of solvent and emulsifier, and the concentrate is diluted with water to the desired concentration.
To test for protective activity, young plants are sprayed with the preparation of active compound at the stated application rate. After the spray coating has dried on, the plants are inoculated with an aqueous spore suspension of the apple mildew pathogen Podosphaera leucotricha. The plants are then placed in a greenhouse at about 23° C. and a relative atmospheric humidity of about 70%.
Evaluation is carried out 10 days after the inoculation. 0% means an efficacy which corresponds to that of the control, whereas an efficacy of 100% means that no infection is observed.

[2] = tested on: weeds; experiment: Pre-emergence test (greenhouse), damage to weeds; settings: for activity against weeds: soil sprayed 24 hours after sowing, rated after three weeks as % damage vs untreated control
Method: (§2) Solvent: 5 parts by weight of acetone
as §1
(§3) To produce a suitable preparation of active compound, 1 part by weight of active compound is mixed with the stated amount of solvent, the stated amount of emulsifier is added and the concentrate is diluted with water to the desired concentration.
(§4) Seeds of the test plants are sown in normal soil. After 24 hours, the soil is sprayed with the preparation of active compounds such that the particular amount of active compound desired is applied per unit area. The concentration of active compound in the spray liquor is chosen such that the particular amount of active compound desired is applied in 1000 liters of water per hectare.
(§5) After three weeks, the degree of damage to the plants is rated in % damage in comparison to the development of the untreated control. The figures denote: • 0%=no effect (like untreated control) • 100%=total destruction

[3] = tested on: crop plants, such as, for example, wheat and soya; experiment: Pre-emergence test (greenhouse), tolerance by crop plants; settings: after three weeks
Method: as §2, §1, §3, §4, §5

[4] = tested on: weeds; experiment: Post-emergence test (greenhouse), damage to weeds; settings: for activity against weeds: test plants of 5-15 cm sprayed, rated after three weeks as % damage vs untreated control
Method: as §2, §1
(§6) To product a suitable preparation of active compound, 1 part by weight of active compound is mixed with the stated amount of solvent, the stated amount of emulsifier is added and the concentrate is diluted with water to the desired concentration.
(§7) Test plants of a height of 5-15 cm are sprayed with the preparation of active compound such that the particular amounts of active compound desired are applied per unit area. The concentration of the spray liquor is chosen such that the particular amounts of active compound desired are applied in 10001 of water/ha.
(§8) After three weeks, the degree of damage to the plants is rated in % damage in comparison to the development of the untreated control.
(§9) The figures denote: • 0%=no effect (like untreated control) • 100%=total destruction

[5] = tested on: crop plants, such as, for example, corn, wheat and sugar beet; experiment: Post-emergence test (greenhouse), tolerance by crop plants; settings: after three weeks
Method: as §2, §1, §6, §7, §8, §9

[6] = 30 g of a.i./ha, after three weeks
[7] = 8 g of a.i./ha, after three weeks, Table B6
[8] = 30 g of a.i./ha, after three weeks, Table B2
[9] = 60 g of a.i./ha, after three weeks, Table A6
[10] = 8 g of a.i./ha, after three weeks, Table B3
[11] = 15 g of a.i./ha, after three weeks
[12] = 15 g of a.i./ha, after three weeks, Table A2
[13] = 30 g of a.i./ha, after three weeks, Table B7
[14] = 30 g of a.i./ha, after three weeks, Table B5
[15] = 60 g of a.i./ha, after three weeks, Table A7
[16] = 30 g of a.i./ha, after three weeks, Table B9
[17] = 250 g of a.i./ha, after three weeks

COc1cc(OC)nc(NC(=O)NS(=O)(=O)c2c(C)cccc2OCCF)n1 [drawing 17]
% efficacy [1]: 100%

CCCc1cccc(OCCCF)c1S(=O)(=O)NC(=O)Nc1nc(OC)nc(OC)n1 [(8)]
% damage Chenopodium [2, 6]: 90% | % damage Galium [2, 6]: 90% | % damage Stellaria [2, 6]: 100% | % damage Viola [2, 6]: 100% | % damage Wheat ([3]; 30 g of a.i./ha): 0% | % damage Datura [4, 7]: 90% | % damage Ipomoea [4, 7]: 100% | % damage Matricaria [4, 7]: 95% | % damage Solanum [4, 7]: 100% | % damage Stellaria [4, 7]: 95% | % damage Maize ([5]; 8 g of a.i./ha, Table B6): 10% | % damage Wheat ([5]; 8 g of a.i./ha, Table B6): 0%

CCCc1cccc(OCCCF)c1S(=O)(=O)NC(=O)Nc1nc(C)nc(OC)n1 [(7)]
% damage Chenopodium [2, 6]: 90% | % damage Echinochloa [2, 6]: 90% | % damage Galium [2, 6]: 90% | % damage Stellaria [2, 6]: 100% | % damage Viola [2, 6]: 100% | % damage Wheat ([3]; 30 g of a.i./ha): 0% | % damage Abutilon [4, 8]: 100% | % damage Alopecurus [4, 8]: 90% | % damage Amaranthus [4, 8]: 100% | % damage Datura [4, 8]: 100% | % damage Solanum [4, 8]: 100% | % damage Wheat ([5]; 30 g of a.i./ha, Table B2): 0%

CCc1cccc(OCCCF)c1S(=O)(=O)NC(=O)Nc1nc(C)nc(OC)n1 [(17)]
% damage Abutilon [2, 9]: 95% | % damage Alopecurus [2, 9]: 95% | % damage Amaranthus [2, 9]: 95% | % damage Echinochloa [2, 9]: 95% | % damage Galium [2, 9]: 95% | % damage Sinapis [2, 9]: 90% | % damage Abutilon [4, 10]: 100% | % damage Ipomoea [4, 10]: 100% | % damage Lolium [4, 10]: 90% | % damage Matricaria [4, 10]: 100% | % damage Solanum [4, 10]: 100% | % damage Stellaria [4, 10]: 100% | % damage Wheat ([5]; 8 g of a.i./ha, Table B3): 10%

CCCc1cccc(OCCF)c1S(=O)(=O)NC(=O)Nc1nc(OC)cc(OC)n1 [Example 26]
activity against weeds [2]: very strong activity | activity against weeds [4]: very strong activity | efficacy against mildew of apples (Podosphaera leucotricha) [1]: 100%

CCc1cccc(OCCCF)c1S(=O)(=O)NC(=O)Nc1nc(Cl)cc(OC)n1 [(18)]
% damage Abutilon [4, 11]: 90% | % damage Amaranthus [4, 11]: 95% | % damage Matricaria [4, 11]: 95% | % damage Xanthium [4, 11]: 90% | % damage Wheat ([5]; 15 g of a.i./ha): 15%

COc1cc(OC)nc(NC(=O)NS(=O)(=O)c2c(OCCF)cccc2C(F)(F)F)n1 [(4)]
% damage Alopecurus [2, 12]: 80% | % damage Chenopodium [2, 12]: 100% | % damage Matricaria [2, 12]: 100% | % damage Sorghum [2, 12]: 80% | % damage Viola [2, 12]: 100% | % damage Soya ([3]; 15 g of a.i./ha): 0% | % damage Wheat ([3]; 15 g of a.i./ha): 0% | % damage Abutilon [4, 13]: 95% | % damage Alopecurus [4, 13]: 90% | % damage Amaranthus [4, 13]: 100% | % damage Ipomoea [4, 13]: 95% | % damage Matricaria [4, 13]: 100% | % damage Viola [4, 13]: 95%

CCCc1cccc(OCCCF)c1S(=O)(=O)NC(=O)Nc1nc(OC)cc(OC)n1 [drawing 19]
% efficacy [1]: 100%

COc1cc(Cl)nc(NC(=O)NS(=O)(=O)c2c(C)cccc2OCCCF)n1 [(14)]
% damage Abutilon [2, 9]: 95% | % damage Alopecurus [2, 9]: 100% | % damage Amaranthus [2, 9]: 95% | % damage Echinochloa [2, 9]: 100% | % damage Galium [2, 9]: 90% | % damage Sinapis [2, 9]: 95% | % damage Amaranthus [4, 14]: 100% | % damage Ipomoea [4, 14]: 95% | % damage Matricaria [4, 14]: 90% | % damage Sugar beet ([5]; 30 g of a.i./ha, Table B5): 0% | % damage Wheat ([5]; 30 g of a.i./ha, Table B5): 0%

CCCc1cccc(OCCF)c1S(=O)(=O)NC(=O)Nc1nc(OC)cc(OC)n1 [drawing 20]
% efficacy [1]: 100%

CCc1cccc(OCCCF)c1S(=O)(=O)NC(=O)Nc1nc(C)cc(C)n1 [(6)]
% damage Abutilon [2, 15]: 90% | % damage Alopecurus [2, 15]: 80% | % damage Amaranthus [2, 15]: 90% | % damage Galium [2, 15]: 90% | % damage Setaria [2, 15]: 95% | % damage Sinapis [2, 15]: 90% | % damage Abutilon [4, 16]: 90% | % damage Alopecurus [4, 16]: 90% | % damage Amaranthus [4, 16]: 90% | % damage Ipomoea [4, 16]: 100% | % damage Xanthium [4, 16]: 95%

COc1cc(OC)nc(NC(=O)NS(=O)(=O)c2c(C)cccc2OCCF)n1 [Example 24]
activity against weeds [2]: very strong activity | activity against weeds [4]: very strong activity | efficacy against mildew of apples (Podosphaera leucotricha) [1]: 100%

COc1nc(C)nc(NC(=O)[N-]S(=O)(=O)c2c(OCCF)cccc2C(F)(F)F)n1.[Na+] [Example 5]
activity against weeds [2]: very strong activity | activity against weeds [4]: very strong activity

COc1cc(Cl)nc(NC(=O)NS(=O)(=O)c2c(OCCF)cccc2C(F)(F)F)n1 [Example 20]
activity against weeds [2]: very strong activity | activity against weeds [4]: very strong activity

COc1nc(C)nc(NC(=O)NS(=O)(=O)c2c(C)cccc2OCCF)n1 [drawing 18]
% efficacy [1]: 100%

CCCc1cccc(OCCCF)c1S(=O)(=O)NC(=O)Nc1nc(OC)nc(OC)n1 [Example 8]
activity against weeds [2]: very strong activity | activity against weeds [4]: very strong activity

COc1cc(OC)nc(NC(=O)NS(=O)(=O)c2c(C)cccc2OCCF)n1 [(24)]
% damage Alopecurus [2, 17]: 100% | % damage Amaranthus [2, 17]: 100% | % damage Avena fatua [2, 17]: 95% | % damage Galium [2, 17]: 100% | % damage Setaria [2, 17]: 95% | % damage Xanthium [2, 17]: 95% | % damage Abutilon [4, 17]: 100% | % damage Alopecurus [4, 17]: 100% | % damage Amaranthus [4, 17]: 100% | % damage Avena fatua [4, 17]: 90% | % damage Galium [4, 17]: 90% | % damage Setaria [4, 17]: 95% | % damage Sinapis [4, 17]: 100%

CCCc1cccc(OCCCF)c1S(=O)(=O)NC(=O)Nc1nc(OC)cc(OC)n1 [Example 25]
activity against weeds [2]: very strong activity | activity against weeds [4]: very strong activity | efficacy against mildew of apples (Podosphaera leucotricha) [1]: 100%

CCc1cccc(OCCCF)c1S(=O)(=O)NC(=O)Nc1nc(C)nc(OC)n1 [Example 17]
activity against weeds [2]: very strong activity | activity against weeds [4]: very strong activity
